The subject of one series is S. typhimurium LT2. Description: survival of mice inoculated with live Salmonella typhimurium LT2. To be noted: for rescue from lethal infection in words: oral and intraperitoneal routes; for survival rate: 100 μg. In kind it is in vivo, mice (female, Balb/c). How it is done:
Mice (female, Balb/c, 6-8 weeks) were administered a dose of live S. typhimurium LT2 (8×10^8/mouse) via the oral route. Without treatment, this dose of live organisms led to the death of all animals between day 3 and 4 (i.e. LD100 at day 3 or 4). Following challenge with Salmonella, peptide 20-44 (0-150 μg/mouse) was administered via the intravenous; oral, and intraperitoneal routes. […] At day 6 post infection, 100% of animals given a dose of 125 μg of peptide 20-44 intravenously survived. 80% of mice given 50, 100 and 150 μg of peptide survived through to day 5. Data shown in FIG. 10 strongly indicate that peptide 20-44 may also be given via the oral route since 80% survival rates were obtained with 100 μg of peptide. This is evidence that the peptide is not destroyed by the acid environment and enzymes of the stomach and indicates an alternative route of administration to the intravenous route discussed in FIG. 9. The third route of administration of peptide 20-44 was the intraperitoneal route. This is often the method of choice in a veterinary situation.

The conditions of series [1]: U.S. Pat. Nos. 5,607,916 and 5,458,874; cited from earlier work.
Another series deals with S. typhimurium SH9178. Description: in vitro bactericidal activity, S. typhimurium SH9178. The class given is cell-based, Salmonella typhimurium. How it is done: (§1) Methods used herein are those previously described in U.S. Pat. Nos. 5,607,916; 5,627,262; and 5,650,392.
(§2) Peptides 20-44, 20-44ser26 and 20-44ser42, were assayed for bactericidal activity using S. typhimurium SH9178 as the test organism. […] Peptide 20-44ser42 killed 97.8% of bacteria at 75 μM, and peptide 20-44ser26 killed 99.6% of bacteria at 75 μM. Importantly, at concentrations of only 12.5 μM, peptide 20-44ser26 killed 70.4% of organisms and peptide 20-44ser42 killed 66.6% of bacteria. We tested these peptides with the smooth, more virulent LT2 strain of S. typhimurium, (FIG. 3). […] Indeed, the two serine analogs, 20-44ser26 and 20-44ser42 were able to kill 73% and 65% of bacteria at 12.5 μM, the lowest concentration of peptide tested. These levels of mortality were very much greater than those obtained using peptide 20-44. Two other organisms, Staphylococcus aureus ATCC strain 25923 and Enterococcus faecalis (a clinical isolate), both of which are gram-positive organisms, were also tested against 20-44ser26 and 20-44ser42.

The subject of the next series is Pseudomonas aeruginosa. Particulars: cited from earlier work.
A further series has as its system Escherichia coli. Particulars: cited from earlier work.
The conditions of series [2]: cited from earlier work.
The conditions of series [3]: intravenous infusion 3.0 mg/kg with E. coli LPS 250 μg/kg over 30 min; cited from earlier work.
For another series, the system named is Enterococcus faecalis. Particulars: cited from earlier work.
The next series relates to Staphylococcus aureus. Particulars: cited from earlier work.
A short description of series [4]: LPS binding in the in vitro limulus amebocyte lysate (LAL) assay. Particulars: FIGS. 6-7. How it is done:
We tested the ability of the peptide analogs of the present invention to bind LPS in the in vitro limulus amebocyte lysate (LAL) assay and compared them with the parent peptide, 20-44. […] Similarly, peptide 20-44ser42 was also capable of neutralizing the effect of monophosphoryl lipid A at concentrations greater than 500 μg/ml (FIG. 7).

The subject of the next series is Salmonella typhimurium. Particulars: cited from earlier work.
The subject of series [5] is LT2 strain of S. typhimurium. The class given is cell-based. Particulars: 12.5 μM, lowest concentration tested, FIG. 3. How it is done:
as §1, §2

The format of series [6] is physicochemical. An excerpt:
In addition to the Increased potency of peptide 20-44ser42 and 20-44ser26, these two peptides have technical advantages over the parent peptide 20-44. The two new analogs are easier to synthesize and purify because the internal disulfide bonding between the two cysteine residues can no longer occur.

Where [7] appears, read: 75 μM (200 μg/ml), highest concentration tested, FIG. 2.

Here are results for five compounds from patent US6730659B2, “Antimicrobial peptides and methods of use thereof” (The Board of Regents of the University of Oklahoma, priority 1999, dated 2004).

Entries after “also recorded” stand apart in the source; their conditions may differ. Read-outs that look alike come from different tables or passages of the source. Positions of bridges follow the written chain, without caps; N, C: chain ends. Residues, ends and D or L forms follow the SMILES beside them. No end group written: not given here. *: point of attachment. Acm = CC(=O)NC*

In the case of “20-44ACM: sequence of 20-44 with both cysteines permanently protected with an ACM (boc-cys-acetamidomethyl) side group; control peptide (NQGRHFC(Acm)GGALIHARFVMTAASC(Acm)FQ; listed as Homo Sapiens) [Peptide 20-44ACM]”, the “rescue from lethal infection in words” value in the series with S. typhimurium LT2 (intravenous) is “succumbed to infection very rapidly; also recorded: no activity”. Further, the “antibiotic / antimicrobial activity in words” value in [1] is reported as “ineffective antibiotics”.
Take “20-44ser26/42: homologous to peptide 20-44, serines substituted for cysteines at positions 26 and 42 (NQGRHFSGGALIHARFVMTAASSFQ; listed as Homo Sapiens)”: the “antibiotic / antimicrobial activity in words” value in series [1] is listed as “ineffective antibiotics”.
Regarding `CC[C@H](C)[C@@H]1NC(=O)[C@H](CC(C)C)NC(=O)[C@H](C)NC(=O)CNC(=O)CNC(=O)[C@@H](NC(=O)[C@H](Cc2ccccc2)NC(=O)[C@H](Cc2c[nH]cn2)NC(=O)[C@H](CCCNC(=N)N)NC(=O)CNC(=O)[C@H](CCC(N)=O)NC(=O)[C@@H](N)CC(N)=O)CSSC[C@@H](C(=O)N[C@@H](Cc2ccccc2)C(=O)N[C@@H](CCC(N)=O)C(=O)O)NC(=O)[C@H](CO)NC(=O)[C@H](C)NC(=O)[C@H](C)NC(=O)[C@H]([C@@H](C)O)NC(=O)[C@H](CCSC)NC(=O)[C@H](C(C)C)NC(=O)[C@H](Cc2ccccc2)NC(=O)[C@H](CCCNC(=N)N)NC(=O)[C@H](C)NC(=O)[C@H](Cc2c[nH]cn2)NC1=O` [Peptide 20-44] (H-NQGRHFCGGALIHARFVMTAASCFQ-OH; disulfide 7-23; N-terminus and C-terminus assumed), in the series with S. typhimurium SH9178 (FIG. 2), the “bactericidal activity in words” value is reported as “significant antibiotic activity”. Moreover, the “in vitro bactericidal activity in words” value in the series with Pseudomonas aeruginosa, in the series with Escherichia coli and in the series on Salmonella typhimurium was “strong in vitro bactericidal activity” in each case. For the same compound, the 7-day survival rate in [2] (0.2 mg/kg intravenously after lethal dose of LPS) is reported as 30%; in series [2] (1.0 mg/kg intravenously after lethal dose of LPS), 50%; in series [2] (5.0 mg/kg intravenously after lethal dose of LPS), 80%. The “endotoxin-induced increase in circulating TNFα” value in series [2] (5.0 mg/kg, sensitized rats) is “significantly inhibited”. In addition, in series [3], the “effect on LPS-induced circulatory shock in words” value was “prevented LPS-induced hyperdynamic and hypodynamic circulatory shock”. The activity in words result in the series with Enterococcus faecalis and with Staphylococcus aureus was “active” in each case. The same compound displayed a mice survived in the series with S. typhimurium LT2 (50, 100 and 150 μg (intravenous by context, FIG. 9), through to day 5) of 80%. Further, the survival rate amounted to 80% in the series with S. typhimurium LT2 (intraperitoneal, day 5 post infection, FIG. 11); 60% with S. typhimurium LT2 (intraperitoneal, day 6 post infection, FIG. 11); 80% with S. typhimurium LT2 (oral, FIG. 10). The compound further displayed an animals survived in the series on S. typhimurium LT2 (intravenous, 125 μg, day 6 post infection, FIG. 9) of 100%. In the series on S. typhimurium LT2 (intravenous), the “rescue from lethal infection in words” value was “can rescue animals from lethal infection”. In addition, the “binding of LPS / monophosphoryl lipid A in words” value in series [4] is recorded as “bound LPS”.
As to “NQGRHFCGGALIHARFVMTAASSFQ [Peptide 20-44ser42]”, the figures for the bacteria killed (in series [5]; with S. typhimurium SH9178 (12.5 μM); in the series on S. typhimurium SH9178 (setting [7])) were 65%, 66.6% and 97.8%, respectively. The “solubility compared with the 20-44 peptide” value in series [6] is recorded as “greater than the 20-44 peptide”.
The like results for “NQGRHFSGGALIHARFVMTAASCFQ [Peptide 20-44ser26]” were, in that order, 73%, 70.4%, 99.6% and “greater than the 20-44 peptide”.
